Columns and labels:
[1] = Acute toxicity in mice; conditions: mouse, in vivo, ip; intraperitoneal, male I.C.R. mice, survivals at one week
Method: Test: Acute Toxicity in Mice
A normal saline containing each of the test compound mentioned below and 0.5% carboxymethylcellulose was given intraperitoneally to male I.C.R. (Institute of Cancer Research) strain mice aged 5 weeks, weighing 33-35 g. LD50 values were calculated from the survivals of mice at one week after the administration of the test compound.

[2] = Apomorphine-like side effect (summary of side effect tests); type: in vivo; conditions: summary statement
From the text: (i) Rotational behavior inducing action in rats unilaterally lesioned in substantia nigra,
(ii) Gnawing behavior including action in rats, and
(iii) Vomiting-inducing action in dogs

[3] = system: P.C.A. reaction in Donryu strain rats; assay: Inhibition of P.C.A. reaction in Donryu strain rats, rat reaginic antiserum against egg albumin; type: in vivo; conditions: Donryu rat (Table 2-II)
Method: (a) Rat reaginic antiserum against egg albumin
A solution of egg albumin (2 mg) in B. pertussis-diphtheria-tetanus mixed vaccine (1 ml.) (made by Takeda Chemical Industries Ltd.) was mixed with an equal volume of incomplete adjuvant (made by Difco Laboratories) to give an emulsion. The emulsion was given subcutaneously in a single dose of 1 ml. divided equally (0.25 ml.) to the four foot pads of male S.D. (Sprague-Dawley) strain rats aged 8 weeks, each weighing about 300 g.
Five days after the administration, a solution of egg albumin (0.5 mg.) in B. pertussis-diphtheria-tetanus mixed vaccine (0.5 ml.) was further given intramuscularly in a single dose of 0.5 ml. divided equally (0.25 ml.) to 2 places of thigh of the same rats.
Three days after the second administration, blood samples were collected from femoral artery of the rats and allowed to stand at ambient temperature for 5 hours. The separated supernatant was centrifuged at 4° C. (10,000 r.p.m.× 1 hour). The antisera thus obtained were stored at -80° C. prior to use.
(§1) (b) Inhibitory effect on P.C.A. reaction in Donryu strain rat
(§2) The following tests were carried out in substantially the same manner as described in the above item (2)-(a).
(§3) (i) Test compound: N:methyllaurotetanine hydrochloride
(§4) Test animal: Male Donryu strain rats aged 8 weeks, weighing about 130 g.
(§5) Challenge: A normal saline (0.3 ml.) containing egg albumin (4.5 mg.) and Evans blue (1.5 mg.).
(§6) (ii) Test commpound: glaucine or boldine
(§7) Test animal: Male Donryu strain rats aged 8 weeks, weighing 140-150 g.
(§8) Challenge: the same as the above item (b)-(i).

[4] = system: P.C.A. reaction in Donryu strain rats; assay: Inhibition of P.C.A. reaction in Donryu strain rats, rat hyperimmune antiserum against egg albumin; type: in vivo; conditions: Donryu rat (Table 2-II)
Method: (b) Rat hyperimmune antiserum against egg albumin
A solution of egg albumin (20 mg.) in normal saline (1 ml.) was mixed with complete adjuvant (1 ml.) (made by Difco Laboratories) to given an emulsion. The emulsion was subcutaneously given in a single dose of 1 ml. divided equally (0.25 ml.) to the four pads of male S.D. strain rats aged 6 weeks, each weighing about 200 g. (The first immunization).
One week after the administration, an emulsion which was prepared by mixing a solution of egg albumin (10 mg.) in normal saline (1 ml.) with complete adjuvant (1 ml.) was further given subcutaneously (at 3 places) and intramuscularly (at 1 place) in a single dose of 1 ml. divided equally (0.25 ml.) to thigh of the same rats. (The second immunization).
Three weeks after the second administration, a solution of egg albumin (1 mg.) in normal saline (1 ml.) was further given intracutaneously in a single dose of 0.3 ml. divided equally (0.1 ml.) to 3 places of the same rats. (The third immunization).
One week after the third administration, blood samples were collected from rats and treated in substantially the same manner as described in the above item (a). The antisera thus obtained were stored at -80° C. prior to use.
Further, an inhibition test on P.C.A. reaction using the rat hyperimmuneantiserum against egg albumin was carried out in substantially the same manner as described in the above, excepting that the intravenous administration to bring about P.C.A. was carried out at 5.5 hours after the administration of the serum and antiserum. And inhibitory effect on the P.C.A. reaction was also calculated in substantially the same manner as described in the above.
as §1, §2, §3, §4, §5, §6, §7, §8

[5] = system: P.C.A. reaction in I.C.R. strain mice; assay: Inhibition test of P.C.A. reaction in I.C.R. strain mice, rat hyperimmune antiserum against egg albumin; type: in vivo; conditions: intraperitoneal, I.C.R. mouse (Table 3-II)
Method: (c) Inhibition test of P.C.A. reaction in I.C.R. (Institute of Cancer Research) strain mice
(i) Test compound: N-methyllaurotetanine hydrochloride
Fifteen male I.C.R. strain mice aged 7 weeks, weighing about 35 g were divided equally into 3 groups. Each of the groups was composed of 5 mice, (in case of intraperioneal administration of the test compound to the mouse, each of the groups was composed of […]).
Ten-hold diluted solution (0.05 ml.) of the rat hyperimmune antiserum against egg albumin was given intracutaneously to the depilated back of each mouse of Group I and Group II, respectively. On the other hand, a rat normal serum (0.05 ml.) was given intracutaneously to the depilated back of each mouse of Group III. Three hours after the administration, a normal saline (0.1 ml.) containing egg albumin (1.5 mg.) and Evans blue (0.5 mg.) was given intravenously to each mouse of Groups I-III in order to bring about P.C.A., respectively.
Beforehand, 3 hours and 1 hours before the admnistration to bring about P.C.A., a normal saline (0.3 ml.) containing the prescribed amount of N-methyllaurotetanine hydrochloride and carboxymethylcellulose (0.5%) was given orally or intraperitoneally to each mouse of Group I, and a normal saline (0.3 ml.) containing only carboxymethylcellulose (0.5%) was given orally or intraperitoneally to each mouse of Group II.
The procedure followed by the above, was carried out in substantially the same manner as described in the above item (2)-(a). […]

[6] = Antiallergic action (summary of tests); type: in vivo; conditions: summary statement
From the text: Test: Antiallergic Action
(2) Inhibition test of P.C.A. (Passive Cutaneous Anaphylaxis) reaction
(3) Inhibition test of anaphylactic asthma in guinea-pigs

[7] = cited from earlier work

Row | SMILES | LD50 at 168 h [1] [mg/kg] | apomorphine-like side effect [2] | Inhibitory effect on P.C.A. reaction ([3]; intraperitoneal, 66 mg/kg) [%] | Inhibitory effect on P.C.A. reaction ([4]; intraperitoneal, 66 mg/kg) [%] | Inhibitory effect on P.C.A. reaction ([5]; 30 mg/kg) [%] | antiallergic effects [6] | diuretic activity ([7]; THE MERCK INDEX EIGHTH EDITION, Page 159 (1968)) | Inhibitory effect on P.C.A. reaction ([3]; intraperitoneal, 20 mg/kg) [%] | Inhibitory effect on P.C.A. reaction ([3]; intraperitoneal, 60 mg/kg) [%] | Inhibitory effect on P.C.A. reaction ([3]; oral, 50 mg/kg) [%] | Inhibitory effect on P.C.A. reaction ([3]; oral, 100 mg/kg) [%] | Inhibitory effect on P.C.A. reaction ([3]; oral, 200 mg/kg) [%] | Inhibitory effect on P.C.A. reaction ([4]; intraperitoneal, 20 mg/kg) [%] | Inhibitory effect on P.C.A. reaction ([4]; intraperitoneal, 60 mg/kg) [%] | Inhibitory effect on P.C.A. reaction ([4]; oral, 50 mg/kg) [%] | Inhibitory effect on P.C.A. reaction ([4]; oral, 100 mg/kg) [%] | Inhibitory effect on P.C.A. reaction ([4]; oral, 200 mg/kg) [%] | Inhibitory effect on P.C.A. reaction ([5]; 10 mg/kg) [%] | adrenolytic action and antitussive properties ([7]; Chemical Abstracts Vol. 68, 94521Z (1968)) | curariform activity ([7]; Japanese Patent Publication No. 24092/1961)
1 | COc1cc2c(cc1O)C[C@H]1c3c(cc(O)c(OC)c3-2)CCN1C [Boldine, boldine] | 145 | without apomorphine-like side effect | 40 | 30 | 20 | much superior antiallergic effects | diuretic activity | – | – | – | – | – | – | – | – | – | – | – | – | –
2 | COc1cc2c(cc1OC)-c1c(OC)c(OC)cc3c1[C@H](C2)N(C)CC3 [Glaucine, glaucine] | 212 | without apomorphine-like side effect | – | – | 60 | much superior antiallergic effects | – | 60 | 95 | 70 | 80 | 95 | 50 | 85 | 60 | 80 | 90 | 50 | adrenolytic action and antitussive properties | –
3 | COc1cc2c(cc1O)CC1c3c(cc(OC)c(OC)c3-2)CCN1C (centres unmarked) [N-methyllaurotetanine] | – | without apomorphine-like side effect | – | – | – | much superior antiallergic effects | – | – | – | – | – | – | – | – | – | – | – | – | – | curariform activity

Source: patent US4185119A, “Antiallergic methods” (priority 1977, dated 1980)
